Source: patent US20260250318A1, “COMPOSITIONS AND METHODS FOR CROSSING THE BLOOD BRAIN BARRIER” (VOYAGER THERAPEUTICS, INC., priority 2022, published 2026)

Tested on: brain
Assay: Maturation of TTM-001 capsid, NGS enrichment in brain of CD-1 Outbred mice
Type: in vivo
Conditions: NGS fold-enrichment of TTM-001 matured AAV capsid variants in the brain of CD-1 Outbred mice; intravenous 1.0×10^12 VG/dose; 14 days in life; RNA; relative to non-matured TTM-001 control
From the text: This Example describes maturation of the TTM-001 (SEQ ID NO: 981 (amino acid) and 983 (DNA), comprising SEQ ID NO: 941) and TTM-002 (SEQ ID NO: 982 (amino acid) and 984 (DNA), comprising SEQ ID NO: 2) capsid variants to further enhance their transduction and biodistribution in the central nervous system and evolve the AAV capsid variants to provide further cross-species compatibility. Two approaches were used to mature the TTM-001 and TTM-002 capsid sequences in order to randomize and mutate within and around the peptide insert comprised within loop IV of the capsid variant. […] In the first maturation approach, sets of three contiguous amino acids were randomized across the mutagenesis region in the TTM-001 and TTM-002 sequences, which spanned from position 450 to position 466, numbered according to SEQ ID NO: 981 and 982. In the second maturation approach, mutagenic primers were used to introduce point mutations at a low frequency, scattered across the mutagenesis region in the TTM-001 and TTM-002 sequences ranging from position 449 to position 466, numbered according to SEQ ID NO: 981 and 982. AAV capsid variants arising from each maturation approach for TTM-001 were pooled together and AAV capsid variants arising from each maturation approach for TTM-002 were also pooled together, for subsequent testing and characterization in mice.
The library of pooled matured AAV capsid variants generated from TTM-001 or library of pooled matured AAV capsid variants generated from the TTM-002 matured AAV capsid variant each were intravenously injected into the tail vein of three female CD-1 Outbred mice (Charles River) at a dose of 1.0×10^12 VG/dose. After 14-days in life, the brains of the mice were isolated and RNA was extracted. Following RNA recovery and RT-PCR amplification, a systematic NGS enrichment analysis was performed to calculate the fold enrichment ratio relative to the corresponding TTM-001 or TTM-002 control, and the peptides comprised within the variants were identified. The data for the TTM-001 matured capsid variants is provided in Table 13 and the data for the TTM-002 matured capsid variants is provided in Table 14.

Sequence | Fold enrichment over TTM-001 [fold]
KAFNGSGSPHSKAPNQQT | 2.088
KDLRGSGSPHSKAQNQQT | 2.238
KDSLGSGSPHSKAQNQQT | 2.175
KEIKGSGSPHSKAQNQQT | 2.140
KELVGSGSPHSKAQNQQT | 2.019
KEVAGSGSPHSKAQNQQT | 2.250
KEVGGSGSPHSKAQNQQT | 2.358
KEVMGSGSPHSKAQNQQT | 2.047
KGHEGSGSPHSKAQNQQT | 2.151
KGINGSGSPHGKAQNQQT | 2.084
KGLSGSGSPHSKAQNQQT | 4.056
KGLVGSGSPHSKAQNQQT | 2.412
KHRSGSGSPHSKAQNQQT | 2.456
KPLDGSGSPHSKAQNQQT | 2.488
KPLPGSGSPHSKAQNQQT | 2.495
KPLRGSGSPHSKAQNQQT | 2.486
KPPTGSGSPHSKAQNQQT | 2.270
KPRLGSGSPHSKAQNQQT | 2.406
KQPLGSGSPHSKAQNQQT | 2.024
KRLFGSGSPHSKAQNQQT | 2.330
KRSKGSGSPHSKAQNQQT | 2.030
KSINGSGSPHSKAHDQQT | 3.592
KSMNGSGSPHSRAQNQQT | 5.145
KTIMRVGSPHSKAQNQQT | 4.875
KTINASGSPHSKAQGQQT | 2.108
KTINFLRSPHSKAQNQQT | 3.331
KTINGALSPHRKAQNQQT | 2.203
KTINGCSSPHRKAQNQQT | 2.291
KTINGFLSPHRKAQNQQT | 2.654
